The values below come from article PMC7246765, “Development of a Radiofluorinated Adenosine A2B Receptor Antagonist as Potential Ligand for PET Imaging” (International Journal of Molecular Sciences, 2020).

Experiment [1] concerns the target T1, human adenosine A2A receptor (Homo sapiens, UniProt P29274).
T1 construct: host or cells: CHO or HEK cells
Nature of the experiment: Competitive radioligand binding with [3H]MSX-2, membranes of CHO or HEK cells. Particulars: ratio of Ki values. How it is done:
(§1) The binding affinities of 2 and 9 at the four human adenosine receptor subtypes A2B, A2A, A1, and A3, presented in Table 1, were determined in competitive binding assays using appropriate radioligands and membrane preparations of Chinese hamster ovary (CHO) cells or human embryonic kidney (HEK) cells, respectively, recombinantly expressing the corresponding human receptor subtype.
(§2) Membrane preparations of recombinant CHO or HEK (human embryonic kidney) cells expressing the respective human adenosine receptor subtype were obtained according to Borrman et al. or purchased from Perkin Elmer, Germany. Radioligand binding assays using human A1, A2A, A2B and A3 receptors were performed according to Alnouri et al..
[^3H]3-(3-hydroxypropyl)-7-methyl-8-(m-methoxystyryl)-1-propargylxanthine, ([^3H]MSX-2, molar activity: 84 Ci/mmol, 1 nM [29]) for the A2A receptor,
(§3) [^3H](R)-8-ethyl-4-methyl-2-(phenyl)1,4,7,8-tetrahydro-5H-imidazo[2,1-i]purin-5-one ([^3H]PSB-11, molar activity: 53 Ci/mmol, 1 nM [30]) for the A3 receptor. Three separate experiments were performed to determine the Ki values. All data were analyzed with GraphPad Prism, Version 4.1 (GraphPad Inc., La Jolla, CA,USA).

Experiment [2] addresses T2, human adenosine A1 receptor (Homo sapiens, UniProt P30542).
T2 construct: host or cells: CHO or HEK cells
T2 sequence (P30542 1-326): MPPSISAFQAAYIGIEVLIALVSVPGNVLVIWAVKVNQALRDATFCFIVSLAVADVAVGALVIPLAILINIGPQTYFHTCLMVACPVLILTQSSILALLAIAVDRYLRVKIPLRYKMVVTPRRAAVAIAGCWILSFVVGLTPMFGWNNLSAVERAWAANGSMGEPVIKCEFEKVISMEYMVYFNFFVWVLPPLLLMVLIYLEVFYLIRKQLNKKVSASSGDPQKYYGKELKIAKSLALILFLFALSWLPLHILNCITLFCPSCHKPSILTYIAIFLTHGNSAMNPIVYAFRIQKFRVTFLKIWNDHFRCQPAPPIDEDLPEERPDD
Description: Competitive radioligand binding with [3H]CCPA, membranes of CHO or HEK cells. Particulars: ratio of Ki values. How it is done: as §1, §2
[^3H]2-Chloro-N^6cyclopentyladenosine ([^3H]CCPA, molar activity: 58 Ci/mmol, 1 nM [28]) for the A1 receptor,
as §3

In experiment [3] the target is T3, human adenosine A3 receptor (Homo sapiens, UniProt P0DMS8).
T3 construct: host or cells: CHO or HEK cells
T3 sequence (P0DMS8 1-318): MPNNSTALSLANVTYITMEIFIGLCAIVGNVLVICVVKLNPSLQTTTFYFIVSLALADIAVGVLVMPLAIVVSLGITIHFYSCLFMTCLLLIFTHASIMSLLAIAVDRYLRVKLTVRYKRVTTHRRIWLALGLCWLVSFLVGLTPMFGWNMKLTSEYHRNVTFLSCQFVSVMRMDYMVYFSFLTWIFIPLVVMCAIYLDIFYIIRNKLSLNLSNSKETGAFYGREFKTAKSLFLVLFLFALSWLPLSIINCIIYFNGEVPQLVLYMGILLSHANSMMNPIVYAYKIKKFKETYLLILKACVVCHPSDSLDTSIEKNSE
Nature of the experiment: Competitive radioligand binding with [3H]PSB-11, membranes of CHO or HEK cells. Particulars: ratio of Ki values. How it is done: as §1, §2, §3

Experiment [4] has as its target T4, human adenosine A2B receptor (Homo sapiens, UniProt P29275).
T4 construct: host or cells: CHO or HEK cells
T4 sequence (P29275 1-332): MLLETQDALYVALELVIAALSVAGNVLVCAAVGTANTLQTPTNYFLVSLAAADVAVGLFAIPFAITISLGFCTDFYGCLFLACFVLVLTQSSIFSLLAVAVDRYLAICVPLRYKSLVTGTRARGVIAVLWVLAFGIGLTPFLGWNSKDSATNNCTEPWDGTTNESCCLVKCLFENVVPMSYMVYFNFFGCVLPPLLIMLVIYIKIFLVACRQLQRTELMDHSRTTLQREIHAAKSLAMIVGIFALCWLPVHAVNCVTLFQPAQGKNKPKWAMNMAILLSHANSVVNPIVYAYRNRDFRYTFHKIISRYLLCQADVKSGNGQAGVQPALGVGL
As to conditions: cited from earlier work.

Experiment [5] has as its target T1, human adenosine A2A receptor. Particulars: cited from earlier work.
The target in experiment [6] is T2, human adenosine A1 receptor. Particulars: cited from earlier work.
For experiment [7], the target named is T3, human adenosine A3 receptor. Particulars: cited from earlier work.

A word on the Ki: it is the dissociation constant of the complex between target and ligand, obtained from inhibition or displacement.

T1 sequence (P29274 whole entry): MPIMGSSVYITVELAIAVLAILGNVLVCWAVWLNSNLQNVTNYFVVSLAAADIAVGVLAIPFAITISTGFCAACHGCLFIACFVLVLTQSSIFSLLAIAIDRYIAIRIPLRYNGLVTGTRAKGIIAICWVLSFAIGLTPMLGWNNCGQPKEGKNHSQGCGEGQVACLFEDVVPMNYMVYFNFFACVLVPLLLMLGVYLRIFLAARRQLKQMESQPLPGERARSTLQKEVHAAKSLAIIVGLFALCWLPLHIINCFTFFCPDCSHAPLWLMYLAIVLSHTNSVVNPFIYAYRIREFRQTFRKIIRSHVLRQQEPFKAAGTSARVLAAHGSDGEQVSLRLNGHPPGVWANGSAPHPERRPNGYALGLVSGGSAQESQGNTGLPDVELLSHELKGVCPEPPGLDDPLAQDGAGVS

As to `O=C(Nc1cnc(-c2ccnc(F)c2)c(-c2ccccc2F)n1)C1CC1` [Compound 1], in experiment [1], the “Selectivity Ratio Ki(Ax)/Ki(A2B): A2A/A2B” value was 13. In addition, the “Selectivity Ratio Ki(Ax)/Ki(A2B): A1/A2B” value in experiment [2] was found to be 4.5. Besides, the “Selectivity Ratio Ki(Ax)/Ki(A2B): A3/A2B” value in experiment [3] is reported as 188. In addition, the inhibitory constant (Ki) in experiment [4] was 4.24 ± 0.04 nM; in experiment [5], 55 ± 6.1 nM; in experiment [6] it was 19 ± 5.2 nM; in experiment [7], 796 ± 26 nM.
